Structure (SMILES)	melting point [°C]
Cc1cc(CC#N)cc(CC#N)c1	75 to 78
CNC(=O)N1N=C(c2ccc(N)cc2)c2cc(OC)ccc2CC1C (configuration not stated)	190 to 191
C=CCOCC(C)OC(=O)COc1ccc(Cl)c2cccnc12 (configuration not stated)	59
COc1cc2c(c(OC)c1OC)C1=C(CCC1)C(=O)CC2	101 to 102
CSCc1cn(C)c2ccc(Cl)cc2c1=O	148 to 150
Cn1c(=O)c2c(ncn2CCCCC(=O)CBr)n(C)c1=O	106 to 109
CSC[C@H](NC(C)=O)C(=O)N(C)N	156 to 157
COc1cc(-c2cc(Br)cs2)cc2oc(=O)c(C)c(C)c12	131 to 134
CS(=O)c1c(C(F)(F)F)nn(-c2c(Cl)cc(C(F)(F)F)cc2Cl)c1N (configuration not stated)	142 to 145
CON=C(OC)C(=O)c1ncsc1C	65
COC(=O)/C=C/c1c(OC)cccc1OC	76 to 78
COc1ccc(F)c2c1C=C(C#N)CO2	133 to 135
CCOC(=O)C1=C(N)N=C(OCC)C(C(=O)OCC)C1c1ccccc1 (configuration not stated)	119
CN1CCC(O)(C2SCCCS2)CC1	115 to 120
O=Cc1cc2ccccc2nc1I	150 to 152
CC(OC(=O)ON=C(C#N)c1ccccc1)C1CC1 (configuration not stated)	65 to 67
Nc1nc(N)c(-c2ccc(Cl)cc2Cl)c(CBr)n1	> 270
CCOC(=O)c1cnc2ccc(CC)nc2c1Cl	94 to 96
FC(F)(F)COc1ccccc1N1CCNCC1	107 to 108
CC(=O)c1ccc(CCCOc2c(C)cc(N3CN=C(C(F)(F)F)O3)cc2C)nn1	86 to 87
CC(C)(C)OC(=O)NCc1nnc(S)s1	144 to 146
CCCCCCCCCCCCCCCCCCN(C)[Si](C)(C)C	35 to 40

Structure (SMILES)	melting point [°C]
CCOC(=O)c1ccc(C(=O)NS(=O)(=O)c2ccc(CCNC(C)=O)cc2)cn1	245
CCOC(=O)CSc1nnc(SCCCBr)s1	118 to 120
CCOC(=O)c1ncc2[nH]c3ccc(Cl)cc3c2c1C	225 to 228
CCC(C(CC(=O)OC)c1ccc(Cl)cc1Cl)[N+](=O)[O-] (configuration not stated)	234 to 237
CC12CC[C@](C(=O)N3CCC4(C=Cc5ccccc54)CC3)(OC1=O)C2(C)C	215 to 216
Cn1nc(N2c3cccc(F)c3CC2C(=O)N2CCCCCC2)ccc1=O (configuration not stated)	211 to 213
Cn1c(=O)[nH]c(=O)n(-c2cc(N)c(F)cc2Cl)c1=O	244 to 245
CC(=O)OCc1c(S(C)(=O)=O)ccc(C(=O)O)c1Cl	219 to 223
CCCCCCCCCCCCCCCC(=O)C1=C(O)COC1=O	81 to 83
CC(C)C[C@H](OC(=O)NC1CCCCC1)C(=O)OCc1ccccc1	89 to 90
COC(=O)C1=CC[C@H]2[C@@](C=O)(CCC3C(C)(C)CCC[C@@]32C)C(=O)C1 (some centres not stated)	86 to 88
CSc1nc2ccnn2c(O)c1C#N	> 250
Nc1c(C(=O)O)cnn1-c1ccc(Cl)cc1	169 to 171
COc1cc2nc(S(=O)Cc3ncc(C)c(N(C)C)c3Cl)[nH]c2cc1OC (configuration not stated)	174 to 175
CC1(C)Cc2cccc(S(N)(=O)=O)c2O1	160 to 162
CC(C)CC1(C(CCN2C(=O)c3c(F)c(F)c(F)c(F)c3C2=O)C(=O)NO)CCN(CCc2ccccc2)C1=O (configuration not stated)	172 to 174
CC(NC(=O)OC(C)(C)C)C1CCN(c2c(F)c(N)c3c(=O)[nH]c(=O)n4c3c2OCC4C)C1 (configuration not stated)	136 to 138
N#CC(c1ccc(Cl)c(C(F)(F)F)c1)N1CCOCC1 (configuration not stated)	73 to 74
O=C1CCCCCCC1F (configuration not stated)	48.1 to 49.8
COC(=O)[C@@H]1CCCN1C(=O)CCC(=O)c1ccccc1	66 to 70
C=CCn1c(=O)c(C(=O)OCC)c(O)c2ccc(C)nc21	110 to 112

Continued, values first:

melting point [°C]	Structure (SMILES)
245 to 247	CC(C)(CN)c1ccc(C(=O)Nc2cn3cc(Cl)ccc3n2)cc1
244 to 246	N#Cc1cnn2c(-c3cccc([N+](=O)[O-])c3)ccnc12
94	CC(C)(C)OC(=O)Cn1c(C(=O)OCc2ccccc2)cc2cnccc21
156	Cc1cc(Cl)cc(C(=O)Nc2ccc(F)cn2)n1
132 to 135	O=C(NCCCn1cnc(-c2ccccc2)c1)c1ccc(Br)cc1
198 to 200	CS(=O)(=O)Nc1ccc(C(=O)c2ccc(Cl)cc2)cc1
94 to 96	O=CN1c2ccccc2N(Cc2ccccc2)CC1CN1CCCC1 (configuration not stated)
111 to 113	CNC(=O)c1ccccc1Sc1ccc(COC(C)=O)cc1[N+](=O)[O-]
219 to 220	Cc1cc(O)nc2nc(SCc3ccccc3)nn12
112	Cc1cc(-n2ccnc2)c2cccc(OCc3c(Cl)ccc(S(=O)(=O)N4CCC[C@H]4C(=O)NCC4CCN(CCCCO)CC4)c3Cl)c2n1
170	CC(=O)N1CC(=Cc2ccncc2)C(=O)c2ccccc21
191	O=C(c1cc(=O)c2c(OCCOc3ccccc3)cccc2o1)N1CCN(CCO)CC1
159 to 160	CN1CCCC(Cn2nc(-c3c(-c4ccccc4)nn4ccccc34)ccc2=O)C1 (configuration not stated)
78 to 79	N#Cc1ccc2c(c1)CCC=C2c1cncs1
60 to 61	C=CCOc1ccc2ccc(C(=O)OCC)cc2c1
38 to 39	Fc1ccc(NCc2ccccc2)cc1
80	CCc1nc2c(C)c(S(=O)(=O)N(C)C)c(C)nc2n1Cc1ccc(-c2ccccc2-c2c(OC(C)C)c(=O)c2=O)cc1
83 to 85	COC(=O)c1ccc2cc(CCCCCc3cc4ccc(C(=O)OC)cc4o3)oc2c1
232 to 236	O=C1COc2cc(NC(=O)C(=O)N3CCC(OCc4ccccc4)CC3)ccc2N1
140 to 142	COc1csc(Cc2c(C(C)C)cc(C(C)C)c(C(C)O)c2-c2ccc(F)cc2)c1 (single isomer, unassigned; (+))

melting point [°C]	Structure (SMILES)
> 300	O=C(O)c1ccc2c(c1)S(=O)(=O)N=C(n1ccnc1)N2
125 to 137	O=C(Nc1cccc(Cl)c1)ONC1C=NC(c2ccccc2Cl)=c2cc(Cl)ccc2=N1 (configuration not stated)
139 to 140	CCOc1cc(-c2ncc3[nH]c4ccc(OCc5ccccc5)cc4c3c2COC)no1
102 to 103	CCCOc1ccc(F)cc1OCCN1C(=O)c2ccccc2C1=O
166 to 168	CC(c1cc2ncnc(Cl)c2[nH]1)c1oc2ccccc2c(=O)c1-c1cccc(F)c1 (configuration not stated)
118 to 120	Cc1[nH]cnc1CCNC(=NCCCOc1cccc(CN2CCCCC2)c1)NC(=O)c1ccccc1
71	S=C(NCc1ccccc1)C1(c2ccccn2)CCCS1 (configuration not stated)
75 to 79	CCOC(=O)C1=C(C)NC(C)=C(C(=O)OCCN2CCN(C(c3ccccc3)c3ccccc3)CC2)C1c1ccc(Cl)cc1 (configuration not stated)
97 to 98	CCCCCCN1c2ccc(OC)cc2C(C)(C)C12C=Cc1cc([N+](=O)[O-])cc(OC)c1S2 (configuration not stated)
109 to 111	COc1ccc(CCc2cc3cc(Br)ccc3o2)cc1
169 to 171	Cc1nc(N2CCN(Cc3ccccc3)C2=O)sc1C(=O)NCc1ccccc1
159 to 160	COc1ccc(-c2ccc3c(c2)CCc2nn(-c4ccccn4)c(O)c2-3)cc1
148 to 149	N#CC(C(=O)c1cccnc1)c1ccccc1 (configuration not stated)
95 to 97	CN(C)CCNc1nc2cc(Cl)c(Cl)cc2nc1-c1ccccn1
161 to 165	CC(=O)N1CCn2nc(Nc3cc(-c4ccc5c(c4)NC(=O)C5)cn4ccnc34)cc2C1
164 to 166	O=C(O)C(Cc1ccccc1)Oc1ccc(-c2ccc(-c3c(Cc4ccccc4)oc4ccccc34)cc2)cc1 (configuration not stated)
151 to 152	CC(=O)Oc1ccc(S(=O)(=O)ON=C2CCCc3ccccc32)cc1
170	CC(C)c1ccc(NC(=O)C2CCCc3c(OCc4ccccc4)cccc32)cc1 (configuration not stated)
106 to 108	O=C(NC1CCc2ccccc2C(CCCc2ccccc2)C1=O)OCc1ccccc1 (configuration not stated)
105 to 108	CC1(C)CCC(C)(C)c2cc(-c3cc(-c4ccc(C(=O)NO)cc4)ccc3-c3ccccc3)ccc21

melting point [°C]	Structure (SMILES)
204 to 205	COc1cccc2c1[nH]c(=O)n2C(=O)Oc1ccccc1
101 to 102	c1ccc(COc2ccc(-c3cocn3)cc2)cc1
153 to 154	OCC1OC(c2ccc(Cl)c(Cc3cc4ccccc4s3)c2)C(O)C(O)C1O (configuration not stated)
197 to 198	O=C(NC(Cc1ccccc1)C(=O)O)OCc1ccc(NC(=O)c2ccccc2)cc1 (configuration not stated)
74 to 76	CC(=O)OCc1ccc(OCC(OC(C)=O)c2cc3cc(C(C)C)ccc3o2)cc1 (configuration not stated)
92 to 94	CCCCc1oc2ccccc2c1C(=O)c1cc(Br)c(OCC(=O)O)c(Br)c1
166 to 168	COc1ccc(NC(=N)c2ccc(SC)cc2)cc1
158 to 163	OCCCNc1cc(-c2ccnc(Nc3cccc(C(F)(F)F)c3)n2)ccn1
155	Cc1ccc(Sc2cc(C#N)ccc2C#N)cc1
123 to 125	COc1cccc(N(CCN2CCC(C(=O)c3ccc(F)cc3)CC2)C(=O)c2cccc([N+](=O)[O-])c2)c1
160 to 161	Cc1oc(-c2ccc(Cl)cc2)nc1CC(=O)O
190 to 191	CC(=O)Nc1ccc(S(=O)c2ccc(Br)cc2)cc1 (configuration not stated)
155 to 165	CCOC(Nc1ccc(C(=O)O)cc1)C(=O)c1ccc(Oc2ccc(Cl)c3ccccc23)cc1 (configuration not stated)
191 to 193	O=C1c2cc3nnn(CCc4cccc(F)c4)c(=O)c3cc2OC2OCCN12 (configuration not stated)
268	CCn1c2c(c3ccccc31)S(=O)(=O)N(C)C(C(=O)Nc1ccccc1)=C2O
331 to 334	CCc1c2c(nn1-c1ccccc1)c(=O)[nH]c1ccccc12
89 to 91	COc1cc(CN2CCCC2)ccc1OCC(=O)Nc1ccc(-c2ccc(Cl)cc2)cc1
211 to 212	Cc1nccn1-c1nc(-c2ccc(Cl)cc2)c(CCCC(=O)O)o1
138 to 145	OC1(c2ccc(Br)cc2)CCN(CCCc2noc3cc(F)ccc23)CC1
